Experimental findings from US20240208928A1, “NOVEL COMPOUNDS” (Hoffmann-La Roche Inc., priority 2021, published 2024) are described below.

Where only a bound is given, the exact number is not on record here.

Holding throughout (format): cell-based
In assay [1] the target is T1, NLRP3 (Homo sapiens, UniProt Q96P20). As to the kind of experiment: Human whole blood IL-1β release assay. To be noted: 1 μg/ml LPS, nigericin 10 μM, IL-1β by AlphaLisa. Also on record: Human whole blood in Li-heparin tubes was obtained from healthy donors; from tissue; host or cells: human whole blood from healthy donors, LPS-primed, nigericin-stimulated. Here is the method: For systemic delivery, the ability to inhibit NLRP3 when the compounds are present within the bloodstream is of great importance. For this reason, the NLRP3 inhibitory activity of a number of compounds in human whole blood was investigated in accordance with the following protocol.
T1 sequence (Q96P20 whole entry): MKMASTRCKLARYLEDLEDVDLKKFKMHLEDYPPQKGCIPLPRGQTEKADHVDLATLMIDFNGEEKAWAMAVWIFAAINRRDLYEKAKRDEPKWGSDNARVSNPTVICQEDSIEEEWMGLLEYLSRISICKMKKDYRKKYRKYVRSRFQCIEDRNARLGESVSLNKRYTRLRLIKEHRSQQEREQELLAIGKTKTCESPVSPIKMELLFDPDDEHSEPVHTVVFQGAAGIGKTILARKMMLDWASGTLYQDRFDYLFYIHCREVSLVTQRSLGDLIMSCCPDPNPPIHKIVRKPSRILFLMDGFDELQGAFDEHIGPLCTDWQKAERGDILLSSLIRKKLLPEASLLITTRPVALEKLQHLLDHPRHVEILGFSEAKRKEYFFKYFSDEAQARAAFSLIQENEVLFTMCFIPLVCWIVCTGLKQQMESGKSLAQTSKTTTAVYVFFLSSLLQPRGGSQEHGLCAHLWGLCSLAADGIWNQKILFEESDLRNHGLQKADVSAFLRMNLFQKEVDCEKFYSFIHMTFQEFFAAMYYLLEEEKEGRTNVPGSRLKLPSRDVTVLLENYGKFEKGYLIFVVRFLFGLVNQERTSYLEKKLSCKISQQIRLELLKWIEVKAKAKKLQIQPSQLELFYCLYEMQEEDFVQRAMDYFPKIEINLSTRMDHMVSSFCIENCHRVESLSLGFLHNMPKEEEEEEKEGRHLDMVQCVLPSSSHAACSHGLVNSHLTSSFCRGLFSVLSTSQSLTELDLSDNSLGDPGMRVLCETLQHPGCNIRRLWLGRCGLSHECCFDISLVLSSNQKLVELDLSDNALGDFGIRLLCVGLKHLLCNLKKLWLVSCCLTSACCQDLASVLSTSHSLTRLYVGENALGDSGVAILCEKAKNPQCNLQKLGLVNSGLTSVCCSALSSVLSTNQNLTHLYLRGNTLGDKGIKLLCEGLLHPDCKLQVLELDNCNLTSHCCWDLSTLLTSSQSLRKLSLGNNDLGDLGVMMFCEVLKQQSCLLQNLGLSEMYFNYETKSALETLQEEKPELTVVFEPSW
Human whole blood in Li-heparin tubes was obtained from healthy donors from a volunteer donor panel. • 1. […] Incubate for 3 hrs at 37° C., 5% CO2 • 4. Add 10 μl nigericin (Sigma #N7143) (10 μM FAC) to all wells • 5. Incubate for 1 hr at 37° C., 5% CO2 • 6. At the end of the incubation period, spin plates at 300×g for 5 mins to pellet cells and remove 20 μl of supernatant and add to 96-well v-bottom plates for IL-1β analysis (note: these plates containing the supernatants can be stored at −80° C. to be analysed at a later date) • 7. IL-1β was measured according to the manufacturer protocol (Perkin Elmer-AlphaLisa IL-1 Kit AL220F-5000) • 8. IC50 data is fitted to a non-linear regression equation (log inhibitor vs response-variable slope 4-parameters)

Assay [2] deals with T2, hERG channels (Homo sapiens, UniProt Q12809).
T2 construct: cryopreserved at Evotec (Germany) ATCC PTA-6812; host or cells: CHO (Chinese hamster) crelox hERG cell line
T2 sequence (Q12809 whole entry): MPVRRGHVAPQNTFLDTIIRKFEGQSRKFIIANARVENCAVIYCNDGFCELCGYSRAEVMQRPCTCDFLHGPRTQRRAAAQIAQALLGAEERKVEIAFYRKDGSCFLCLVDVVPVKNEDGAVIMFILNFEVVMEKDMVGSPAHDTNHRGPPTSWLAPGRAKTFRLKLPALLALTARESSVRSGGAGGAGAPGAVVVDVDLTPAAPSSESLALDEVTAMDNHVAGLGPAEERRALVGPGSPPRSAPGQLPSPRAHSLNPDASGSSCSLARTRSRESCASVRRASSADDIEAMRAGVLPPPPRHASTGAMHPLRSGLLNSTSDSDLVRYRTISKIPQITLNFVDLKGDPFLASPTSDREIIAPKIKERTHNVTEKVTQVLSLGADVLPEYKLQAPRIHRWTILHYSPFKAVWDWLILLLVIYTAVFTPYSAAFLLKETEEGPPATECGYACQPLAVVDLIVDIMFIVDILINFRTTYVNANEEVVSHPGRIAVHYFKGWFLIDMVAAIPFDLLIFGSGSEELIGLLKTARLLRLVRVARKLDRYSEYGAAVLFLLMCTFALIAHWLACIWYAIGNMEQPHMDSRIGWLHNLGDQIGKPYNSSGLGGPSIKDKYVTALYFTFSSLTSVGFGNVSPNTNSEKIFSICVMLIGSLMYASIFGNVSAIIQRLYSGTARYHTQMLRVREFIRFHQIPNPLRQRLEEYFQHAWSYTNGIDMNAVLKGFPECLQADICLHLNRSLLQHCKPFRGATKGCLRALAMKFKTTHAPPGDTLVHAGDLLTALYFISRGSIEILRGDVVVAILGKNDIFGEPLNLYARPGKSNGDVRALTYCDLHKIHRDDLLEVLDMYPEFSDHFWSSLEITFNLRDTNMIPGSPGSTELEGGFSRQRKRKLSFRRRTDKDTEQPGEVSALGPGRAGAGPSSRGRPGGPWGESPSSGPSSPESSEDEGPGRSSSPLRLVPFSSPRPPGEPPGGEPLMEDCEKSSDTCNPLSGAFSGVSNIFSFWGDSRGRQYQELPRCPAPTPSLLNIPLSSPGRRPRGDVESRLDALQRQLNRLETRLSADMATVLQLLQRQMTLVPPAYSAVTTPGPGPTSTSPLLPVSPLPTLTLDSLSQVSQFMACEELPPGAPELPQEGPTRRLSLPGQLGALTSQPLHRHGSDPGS
As to the kind of experiment: hERG screening assay (automated patch clamp). The settings on record: CHO crelox hERG cell line, whole-cell patch clamp SynchroPatch 384, 35-37° C. An excerpt: hERG Screening Assay The CHO crelox hERG cell line (ATCC reference Nr. PTA-6812, female Chinese hamster cells) was generated and validated at Roche. Ready-to-use frozen instant CHO-hERG cells were cryopreserved at Evotec (Germany) and used directly in the experiments. The extracellular solution contains (in mM): NaCl 150; KCl 4; CaCl2 1; MgCl2 1; HEPES 10; pH 7.2-7.4 with NaOH, osmolarity 290-330 mOsm. The internal solution contains (in mM): KCl, 10; KF, 100; NaCl, 10; HEPES, 10; EGTA, 20; pH=7.0-7.4 with KOH, osmolarity 260-300 mOsm. The effects of a compound on hERG K+-currents parameters will be evaluated at 2 concentrations in at least 4 cells. The hERG test is performed using automated patch clamp system SynchroPatch® 384 (Nanion Technologies GmbH, Germany). K+ currents are measured with the patch-voltage-clamp technique in the whole-cell configuration at 35-37° C. Cells were held at a resting voltage of −80 mV and they were stimulated by a voltage pattern shown in FIG. 1 to activate hERG channels and conduct outward IKhERG current, at a stimulation frequency of 0.1 Hz (6 bpm) The amplitudes of IKhERG were recorded in each concentration of drug and they were compared to the vehicle control values (taken as 100%) to define fractional blocks. The concentration-response data were fitted with the following relationship: where C is the concentration, • IC50 is the concentration producing 50% block • h is the Hill coefficient. Concentration-response curves were fitted by non-linear regression analysis using EworkBook suite (ID Business Solutions Ltd, UK). Data fit was done with the 4 Parameter Logistic Model (fit=(A+(B/(1+((x/C)^D)))), where A=0 and B=100).

Assay [3] deals with T1, NLRP3. As to the kind of experiment: THP-1 cells pyroptosis assay. Also on record: Seed THP-1 cells (25,000 cells/well) containing 1.0 μg/ml LPS; host or cells: THP-1 cells, LPS-primed, nigericin-stimulated. To be noted: 1.0 μg/ml LPS, nigericin 5 μM, resazurin readout. As to the method: The cells were routinely passaged and grown to confluency (˜10^6 cells/ml). On the day of the experiment, THP-1 cells were harvested and resuspended into RPMI medium (without FBS). […] To this diluted cell solution was added LPS (Sigma #L4524) to give a 1 μg/ml Final Assay Concentration (FAC). 40 μl of the final preparation was aliquoted into each well of a 96-well plate. The plate thus prepared was used for compound screening.
The following method step-by-step assay was followed for compound screening. • 1. […] Incubate for 3 hrs at 37° C., 5% CO2 • 4. Add 5 μl nigericin (Sigma #N7143) (FAC 5 μM) to all wells • 5. Incubate for 1 hr at 37° C., 5% CO2 • 6. At the end of the incubation period, spin plates at 300×g for 3 mins and remove supernatant • 7. Then add 50 μl of resazurin (Sigma #R7017) (FAC 100 μM resazurin in RPMI medium without FBS) and incubate plates for a further 1-2 hrs at 37° C. and 5% CO2 • 8. […] IC50 data is fitted to a non-linear regression equation (log inhibitor vs response-variable slope 4-parameters)

`CCN1CCCC(Nc2nnc(-c3ccc(C(F)(F)F)cc3O)n(C)c2=O)C1` (centres unmarked) [Example 1, 6-((1-ethylpiperidin-3-yl)amino)-3-(2-hydroxy-4-(trifluoromethyl)phenyl)-4-methyl-1,2,4-triazin-5(4H)-one]: the IC50 in assay [1] is 35 nM; in assay [2] it was above 20000 nM; in assay [3] it was 44 nM.

For the compound `CCN1CCC[C@@H](Nc2nnc(-c3c(C)cc(C(F)(F)F)cc3O)n(C)c2=O)C1` [Example 28, 6-[[(3R)-1-Ethyl-3-piperidyl]amino]-3-[2-hydroxy-6-methyl-4-(trifluoromethyl)phenyl]-4-methyl-1,2,4-triazin-5-one], the IC50 in assay [1] was 31 nM; in assay [2] it was above 20000 nM; in assay [3] it was 13 nM.

For the compound `CCN1CCC[C@@H](Nc2nnc(-c3ccc(C(F)(F)F)cc3O)n(C)c2=O)C1` [Example 19, 6-[[(3R)-1-Ethyl-3-piperidyl]amino]-3-[2-hydroxy-4-(trifluoromethyl)phenyl]-4-methyl-1,2,4-triazin-5-one;2,2,2-trifluoroacetic Acid], the results for the IC50 in assay [1], in assay [2] and in assay [3] were 9.5 nM, above 20000 nM and 10 nM, respectively.

`CCN1CCC[C@@H](Nc2nnc(-c3ccc(Cl)cc3O)n(C)c2=O)C1` [Example 33, 3-(4-Chloro-2-hydroxy-phenyl)-6-[[(3R)-1-ethyl-3-piperidyl]amino]-4-methyl-1,2,4-triazin-5-one] returned an IC50 in assay [2] above 20000 nM.

Take `CCN1CCC[C@@H](Nc2nnc(-c3ccc(OC(F)(F)F)cc3O)n(C)c2=O)C1` [Example 27, 6-[[(3R)-1-Ethyl-3-piperidyl]amino]-3-[2-hydroxy-4-(trifluoromethoxy)phenyl]-4-methyl-1,2,4-triazin-5-one]: the IC50 in assay [1] was 14 nM; in assay [2], above 20000 nM; in assay [3] it was 12 nM.

The compound `CCN1CCCC(Nc2cc(C)c(-c3ccc(C(F)(F)F)cc3O)nn2)C1` (centres unmarked) [RE-A, 2-[6-[(1-ethyl-3-piperidyl)amino]-4-methyl-pyridazin-3-yl]-5-(trifluoromethyl)phenol, reference compound] returned a half-maximal inhibitory concentration (IC50) in assay [2] of 1200 nM.

`CCN1CCC[C@@H](Nc2nnc(-c3ccc(F)cc3O)n(C)c2=O)C1` [Example 21, 6-[[(3R)-1-Ethyl-3-piperidyl]amino]-3-(4-fluoro-2-hydroxy-phenyl)-4-methyl-1,2,4-triazin-5-one]: the IC50 was 28 nM in assay [1], above 20000 nM in assay [2] and 58 nM in assay [3].

In the case of `Cn1c(-c2ccc(C(F)(F)F)cc2O)nnc(N[C@@H]2CCCN(C3CC3)C2)c1=O` [Example 10, (R)-6-((1-Cyclopropylpiperidin-3-yl)amino)-3-(2-hydroxy-4-(trifluoromethyl)phenyl)-4-methyl-1,2,4-triazin-5(4H)-one], the half-maximal inhibitory concentration (IC50) in assay [1] is 170 nM; in assay [2], above 20000 nM; in assay [3], 39 nM.

Consider `CCCN1CCC[C@@H](Nc2nnc(-c3ccc(C(F)(F)F)cc3O)n(C)c2=O)C1` [Example 8, 3-[2-Hydroxy-4-(trifluoromethyl)phenyl]-4-methyl-6-[[(3R)-1-propyl-3-piperidyl]amino]-1,2,4-triazin-5-one;2,2,2-trifluoroacetic Acid], for which the results for the 50% inhibitory concentration (IC50) in assay [1] and in assay [3] were 32 nM and 53 nM, respectively.

As to `Cn1c(-c2ccc(C(F)(F)F)cc2O)nnc(NCc2cccc(O)c2)c1=O` [Example 18, 6-[(3-Hydroxyphenyl)methylamino]-3-[2-hydroxy-4-(trifluoromethyl)phenyl]-4-methyl-1,2,4-triazin-5-one;2,2,2-trifluoroacetic Acid], the half-inhibitory concentration (IC50) in assay [1] was 8.1 nM; in assay [3], 1.2 nM.

Take `Cn1c(-c2ccc(C(F)(F)F)cc2O)nnc(NC2CCCN3CCCC23)c1=O` (centres unmarked) [Example 7, 6-(1,2,3,5,6,7,8,8a-Octahydroindolizin-8-ylamino)-3-[2-hydroxy-4-(trifluoromethyl)phenyl]-4-methyl-1,2,4-triazin-5-one;2,2,2-trifluoroacetic Acid]: the IC50 in assay [1] worked out at 86 nM; in assay [3], 51 nM.

As to `CN1C2CCC(Nc3nnc(-c4ccc(C(F)(F)F)cc4O)n(C)c3=O)C1CC2` (centres unmarked) [Example 4, 3-[2-Hydroxy-4-(trifluoromethyl)phenyl]-4-methyl-6-[(8-methyl-8-azabicyclo[3.2.1]octan-2-yl)amino]-1,2,4-triazin-5-one;2,2,2-trifluoroacetic Acid], the IC50 in assay [1] was found to be 120 nM; in assay [3], 96 nM.

`CCN1CCC[C@@H](Nc2nnc(-c3ccc4c(c3O)CCO4)n(C)c2=O)C1` [Example 2, 6-[[(3R)-1-Ethyl-3-piperidyl]amino]-3-(4-hydroxy-2,3-dihydrobenzofuran-5-yl)-4-methyl-1,2,4-triazin-5-one] registered a concentration for half-maximal inhibition (IC50) in assay [2] above 20000 nM.
